# Values of other authors, collected in publication PMC5061580 (Journal of biomolecular structure & dynamics, 2016).
# Experiments:
# blood-brain barrier = details: in-situ rat brain perfusion; ref Kiptoo et al., 2011; On et al., 2014
# [1] = system: Madin-Darby canine kidney cells (MDCK); details: in vitro cell culture monolayers; ref Makagiansar et al., 2001
substance,measurement,setting,value
Ac-SHAVSS-NH2 [HAV6],brain delivery of 14C-mannitol and 3H-daunomycin,blood-brain barrier,increase the brain delivery
same,delivery of 14C-mannitol across MDCK monolayers,[1],enhances
